Paper PMC11649115, “In vitro safety evaluation of dopamine D3R antagonist, R-VK4-116, as a potential medication for the treatment of opioid use disorder” (PLOS ONE, 2024)
Where two headings read alike, the source gives them in different places.

How the values were obtained:
CYP1A2 = target: T1, CYP1A2 (Homo sapiens, UniProt P05177); experiment: CYP inhibition in human liver microsomes; conditions: human liver microsomes
T1 sequence (P05177 1-516): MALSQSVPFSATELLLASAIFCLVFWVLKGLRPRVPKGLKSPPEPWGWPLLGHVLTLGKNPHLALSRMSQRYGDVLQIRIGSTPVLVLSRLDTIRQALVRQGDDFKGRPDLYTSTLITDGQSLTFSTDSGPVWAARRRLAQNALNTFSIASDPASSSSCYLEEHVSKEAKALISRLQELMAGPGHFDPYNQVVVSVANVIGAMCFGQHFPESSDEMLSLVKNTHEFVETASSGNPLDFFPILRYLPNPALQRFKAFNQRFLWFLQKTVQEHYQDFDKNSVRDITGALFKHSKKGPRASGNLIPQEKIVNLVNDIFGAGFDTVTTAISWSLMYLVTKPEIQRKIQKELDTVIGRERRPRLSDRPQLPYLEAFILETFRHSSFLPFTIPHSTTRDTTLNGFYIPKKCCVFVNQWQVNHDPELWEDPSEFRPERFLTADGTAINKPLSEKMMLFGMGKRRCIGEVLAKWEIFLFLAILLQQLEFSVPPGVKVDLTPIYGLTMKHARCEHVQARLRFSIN

human hepatocytes = experiment: MTT assay, hepatocyte viability; format: cell-based
CYP2B6 = experiment: CYP induction, mRNA, primary cultured human hepatocytes; conditions: primary cultured human hepatocytes, Fold Induction (CYP2B6 mRNA expression)
Description: (§1) Rifampicin as a positive control and solvent (0.1% DMSO) vehicle control were also included. The acceptance criteria for CYP induction was ≥ 2-fold induction for significant CYP activity, while the acceptance criteria for CYP mRNA was ≥ 4-fold for significant CYP induction.

CYP2B6 mRNA = experiment: as above; conditions: primary cultured human hepatocytes, Fold Induction (CYP2B6 mRNA expression)
Description: as §1

D3R = target: D3R; set-up: method as in PMID 31526003; conditions: read-out: binding affinity for D3R (Ki); cited from earlier work
TNK1 = target: T2, TNK1 (Homo sapiens, UniProt Q13470); experiment: KINOMEscan binding (% Ctrl, Kd)
T2 construct: made in house; host or cells: E. coli BL21-derived host (T7 phage) or HEK-293
T2 sequence (Q13470 1-666): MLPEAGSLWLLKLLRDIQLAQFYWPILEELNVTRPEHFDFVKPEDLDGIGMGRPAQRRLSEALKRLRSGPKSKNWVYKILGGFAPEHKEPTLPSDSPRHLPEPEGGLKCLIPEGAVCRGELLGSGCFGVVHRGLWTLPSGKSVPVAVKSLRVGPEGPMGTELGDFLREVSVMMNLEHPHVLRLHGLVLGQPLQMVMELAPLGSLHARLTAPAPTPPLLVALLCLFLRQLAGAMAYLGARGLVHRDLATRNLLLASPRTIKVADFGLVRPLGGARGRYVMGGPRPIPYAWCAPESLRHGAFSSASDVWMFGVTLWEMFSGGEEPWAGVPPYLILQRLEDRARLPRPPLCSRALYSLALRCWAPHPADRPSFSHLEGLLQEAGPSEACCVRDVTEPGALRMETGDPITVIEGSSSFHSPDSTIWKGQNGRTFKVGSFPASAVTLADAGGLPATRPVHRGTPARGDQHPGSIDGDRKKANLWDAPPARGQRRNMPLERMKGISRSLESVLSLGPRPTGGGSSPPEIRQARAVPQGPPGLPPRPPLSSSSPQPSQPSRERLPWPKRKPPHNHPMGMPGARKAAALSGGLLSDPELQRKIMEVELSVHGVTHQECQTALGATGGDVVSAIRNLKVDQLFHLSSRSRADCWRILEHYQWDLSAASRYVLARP
Protocol: Briefly, E. coli host derived from the BL21 strain were grown to log-phase and infected with kinase-tagged T7 phage and incubated with shaking at 32°C until lysis. The lysates were centrifuged and filtered to remove cell debris. The remaining kinases were produced in HEK-293 cells and subsequently tagged with DNA for qPCR detection. Streptavidin-coated magnetic beads were treated with biotinylated small molecule ligands to generate affinity resins for kinase assays. The liganded beads were blocked with excess biotin and washed to remove unbound ligand and to reduce non-specific phage binding. […] Selectivity Score (S-score) was a quantitative measure of compound selectivity. […] The binding constants (Kds) were also determined with a standard dose-response curve using the Hill equation and Levenberg-Marquardt algorithm [24, 25].

With `CCc1cc(Cl)c(OC)c(N2CCN(CC(O)CCNC(=O)c3cc4ccccc4[nH]3)CC2)c1` (centres unmarked) [R-VK4-116, N-(4-(4-(3-chloro-5-ethyl-2-methoxyphenyl)piperazin-1-yl)-3-hydroxybutyl)-1H-indole-2-carboxamide] as the molecule, how does the CYP1A2 inhibition (CYP1A2; up to 100 μM) read?
The CYP1A2 inhibition was “did not inhibit CYP significantly”.

And the activity at 20 min, 0.1 µM (CYP1A2; human, probe phenacetin)?
The activity at 20 min, 0.1 µM was 93.7 ± 5.5%.

And the activity at 20 min, 0.3 µM (CYP1A2; human, probe phenacetin)?
Its activity at 20 min, 0.3 µM is 87.7 ± 2.4%.

And the activity at 20 min, 1 µM (CYP1A2; human, probe phenacetin)?
The activity at 20 min, 1 µM was 89.9 ± 0.9%.

And the activity at 20 min, 3 µM (CYP1A2; human, probe phenacetin)?
Its activity at 20 min, 3 µM is 95.7 ± 5.2%.

What about the activity at 20 min, 10 µM (CYP1A2; human, probe phenacetin) of the same molecule?
The activity at 20 min, 10 µM was 96.3 ± 4.7%.

What about the activity at 20 min, 30 µM (CYP1A2; human, probe phenacetin) of the same molecule?
Its activity at 20 min, 30 µM is 88.7 ± 1.9%.

What about the activity at 20 min, 60 µM (CYP1A2; human, probe phenacetin) of the same molecule?
The activity at 20 min, 60 µM was 88.2 ± 2.3%.

What about the activity at 20 min, 100 µM (CYP1A2; human, probe phenacetin) of the same molecule?
The activity at 20 min, 100 µM was 94 ± 5.2%.

And the “Hepatocyte Viability, MTT Assay Upfront (Mean)” value (human hepatocytes; 0.01 µM)?
The value was 93.

What about the “Hepatocyte Viability, MTT Assay Upfront (Mean)” value (human hepatocytes; 0.1 µM) of the same molecule?
The value was 105.

What about the “Hepatocyte Viability, MTT Assay Upfront (Mean)” value (human hepatocytes; 1 µM) of the same molecule?
Its value is 86.

What about the “Hepatocyte Viability, MTT Assay Upfront (Mean)” value (human hepatocytes; 3 µM) of the same molecule?
The value was 91.

What about the “Hepatocyte Viability, MTT Assay Upfront (Mean)” value (human hepatocytes; 10 μM) of the same molecule?
Its value is 73.

And the “Hepatocyte Viability, MTT Assay Upfront (Mean)” value (human hepatocytes; 30 µM)?
The value was 73.

What about the “Hepatocyte Viability, Concurrent MTT Assay (Mean)” value (human hepatocytes; Lot 336, 0.01 µM) of the same molecule?
The value was 96.

What about the “Hepatocyte Viability, Concurrent MTT Assay (Mean)” value (human hepatocytes; Lot 336, 0.10 µM) of the same molecule?
The value was 90.

And the “Hepatocyte Viability, Concurrent MTT Assay (Mean)” value (human hepatocytes; Lot 336, 1 µM)?
The value was 91.

And the “Hepatocyte Viability, Concurrent MTT Assay (Mean)” value (human hepatocytes; Lot 336, 3 µM)?
The value was 80.

And the “Hepatocyte Viability, Concurrent MTT Assay (Mean)” value (human hepatocytes; Lot 336, 5 µM)?
Its value is 75.

What about the “Hepatocyte Viability, Concurrent MTT Assay (Mean)” value (human hepatocytes; Lot 336, 10 µM) of the same molecule?
Its value is 73.

And the “Hepatocyte Viability, Concurrent MTT Assay (Mean)” value (human hepatocytes; Lot 348B, 0.01 µM)?
The value was 100.

And the “Hepatocyte Viability, Concurrent MTT Assay (Mean)” value (human hepatocytes; Lot 348B, 0.10 µM)?
The value was 101.

What about the “Hepatocyte Viability, Concurrent MTT Assay (Mean)” value (human hepatocytes; Lot 348B, 1 µM) of the same molecule?
The value was 104.

And the “Hepatocyte Viability, Concurrent MTT Assay (Mean)” value (human hepatocytes; Lot 348B, 3 µM)?
The value was 96.

And the “Hepatocyte Viability, Concurrent MTT Assay (Mean)” value (human hepatocytes; Lot 348B, 5 µM)?
Its value is 97.

What about the “Hepatocyte Viability, Concurrent MTT Assay (Mean)” value (human hepatocytes; Lot 348B, 10 µM) of the same molecule?
Its value is 102.

What about the “Hepatocyte Viability, Concurrent MTT Assay (Mean)” value (human hepatocytes; Lot 399, 0.01 µM) of the same molecule?
Its value is 107.

And the “Hepatocyte Viability, Concurrent MTT Assay (Mean)” value (human hepatocytes; Lot 399, 0.10 µM)?
The value was 104.

What about the “Hepatocyte Viability, Concurrent MTT Assay (Mean)” value (human hepatocytes; Lot 399, 1 µM) of the same molecule?
Its value is 95.

What about the “Hepatocyte Viability, Concurrent MTT Assay (Mean)” value (human hepatocytes; Lot 399, 3 µM) of the same molecule?
The value was 88.

What about the “Hepatocyte Viability, Concurrent MTT Assay (Mean)” value (human hepatocytes; Lot 399, 5 µM) of the same molecule?
Its value is 86.

What about the “Hepatocyte Viability, Concurrent MTT Assay (Mean)” value (human hepatocytes; Lot 399, 10 µM) of the same molecule?
The value was 91.

What about the “hepatocyte viability, concurrent MTT assay” value (human hepatocytes; ≤ 10 μM) of the same molecule?
The value was “no decrease of hepatocyte viability”.

What about the fold induction at 48 h, 0.01 µM (CYP2B6; hepatocyte Lot 336, 0.01 µM) of the same molecule?
Its fold induction at 48 h, 0.01 µM is 1.

What about the fold induction at 48 h, 0.1 µM (CYP2B6; hepatocyte Lot 336, 0.1 µM) of the same molecule?
The fold induction at 48 h, 0.1 µM was 1.

And the fold induction at 48 h, 1 µM (CYP2B6; hepatocyte Lot 336, 1 µM)?
The fold induction at 48 h, 1 µM was 1.3.

What about the fold induction at 48 h, 3 µM (CYP2B6; hepatocyte Lot 336, 3 µM) of the same molecule?
The fold induction at 48 h, 3 µM was 1.9.

What about the fold induction at 48 h, 5 µM (CYP2B6; hepatocyte Lot 336, 5 µM) of the same molecule?
Its fold induction at 48 h, 5 µM is 1.8.

What about the fold induction at 48 h, 0.1 µM (CYP2B6; hepatocyte Lot 399, 0.1 µM) of the same molecule?
Its fold induction at 48 h, 0.1 µM is 1.2.

What about the fold induction at 48 h, 1 µM (CYP2B6; hepatocyte Lot 399, 1 µM) of the same molecule?
The fold induction at 48 h, 1 µM was 1.2.

And the fold induction at 48 h, 3 µM (CYP2B6; hepatocyte Lot 399, 3 µM)?
Its fold induction at 48 h, 3 µM is 1.3.

What about the fold induction at 48 h, 5 µM (CYP2B6; hepatocyte Lot 399, 5 µM) of the same molecule?
Its fold induction at 48 h, 5 µM is 1.2.

And the fold induction at 48 h, 10 µM (CYP2B6; hepatocyte Lot 399, 10 µM)?
Its fold induction at 48 h, 10 µM is 1.2.

What about the fold induction at 48 h, 10 µM (CYP2B6 mRNA; hepatocyte Lot 336, 10 µM) of the same molecule?
The fold induction at 48 h, 10 µM was 1.9.

And the fold induction at 48 h, 0.01 µM (CYP2B6 mRNA; hepatocyte Lot 348B, 0.01 µM)?
Its fold induction at 48 h, 0.01 µM is 0.98.

And the fold induction at 48 h, 0.1 µM (CYP2B6 mRNA; hepatocyte Lot 348B, 0.1 µM)?
The fold induction at 48 h, 0.1 µM was 1.2.

And the fold induction at 48 h, 1 µM (CYP2B6 mRNA; hepatocyte Lot 348B, 1 µM)?
The fold induction at 48 h, 1 µM was 1.

What about the fold induction at 48 h, 3 µM (CYP2B6 mRNA; hepatocyte Lot 348B, 3 µM) of the same molecule?
Its fold induction at 48 h, 3 µM is 1.1.

What about the fold induction at 48 h, 5 µM (CYP2B6 mRNA; hepatocyte Lot 348B, 5 µM) of the same molecule?
Its fold induction at 48 h, 5 µM is 1.1.

What about the fold induction at 48 h, 10 µM (CYP2B6 mRNA; hepatocyte Lot 348B, 10 µM) of the same molecule?
Its fold induction at 48 h, 10 µM is 1.1.

What about the fold induction at 48 h, 0.01 µM (CYP2B6 mRNA; hepatocyte Lot 399, 0.01 µM) of the same molecule?
Its fold induction at 48 h, 0.01 µM is 1.1.

And the Ki (D3R)?
The Ki was 7.4 nM.

And the Kd (TNK1; 11-point curve 0.001 to 10 μM, read-out: binding constant (Kd))?
The Kd was over 10 µM.

What about the remaining binding at 1 µM (TNK1; read-out: %Control) of the same molecule?
The remaining binding at 1 µM was under 35%.

What about the remaining binding at 1 µM (TNK1; read-out: Gene (S-score with % control): TNK1) of the same molecule?
Its remaining binding at 1 µM is 17%.
